Test results as given in patent US20230109839A1, “THERAPEUTIC AGENT FOR TAUOPATHIES” (SUMITOMO PHARMA CO., LTD., priority 2020, published 2023).
Blank lines part the entries; values can stand above or below the compound they belong to.

Target: T1, human Nav1.1 (Homo sapiens, UniProt P35498)
T1 construct: host or cells: HEK293
Assay: Amplification of Nav1.1-derived voltage-gated sodium current (Nav1.1 current), automated patch clamp (Test 1)
Type: cell-based
Conditions: HEK293 cell line stably expressing human Nav1.1; for activation at 1 µM: HEK293, Concentration for evaluation 1 μM; for activation at 1 µM / activation at 3 µM / activation at 50 µM / activation at 10 µM: read-out: Nav1.1 current amplification rate (%); for activation at 3 µM: HEK293, Concentration for evaluation 3 μM; for activation at 50 µM: HEK293, Concentration for evaluation 50 μM; for activation at 10 µM: HEK293, Concentration for evaluation 10 μM
Summary of the method: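 Compound-induced change in ramp-evoked sodium current peak and AUC was expressed as 100×post/pre ratio minus 100. Recordings used automated patch clamp in voltage-clamp mode on a stable human Nav1.1 HEK293 line, including only cells above 500 pA. Compounds were delivered in extracellular fluid containing 1% DMSO.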

[1] = Concentration for evaluation 1 μM
[2] = Concentration for evaluation 3 μM
[3] = Concentration for evaluation 50 μM
[4] = Concentration for evaluation 10 μM

SMILES: CN(c1cnc2cnn(CC(=O)N3CCN(c4cccc(F)c4)CC3)c2n1)C1CC1 [Example 714]
Nav1.1 current amplification rate (%) [2]: 11%

SMILES: CN1CCN(c2cccc3c2CCN3C(=O)Cn2ncc3ncc(N(C)C4CC4)nc32)CC1 [Example 716]
Nav1.1 current amplification rate (%) [1]: 45%

SMILES: CN(c1cnc2cnn(CC(=O)N3CCc4c(CN5CC=CC5)cccc43)c2n1)C1CC1 [Example 720]
Nav1.1 current amplification rate (%) [1]: 230%

SMILES: CN(c1cnc2cnn(CC(=O)N3CCc4c3cccc4C(F)(F)F)c2n1)C1CC1 [Example 731]
Nav1.1 current amplification rate (%) [4]: 102%

SMILES: CN(c1cnc2cnn(CC(=O)N3CCc4c3cccc4C(C)(C)O)c2n1)C1CC1 [Example 734]
Nav1.1 current amplification rate (%) [1]: 107%

SMILES: O=C(Cn1ncc2ncc(N3CCC4(CCC4)CC3)nc21)N1CCN(c2cccnc2)CC1 [Example 736]
activation at 1 µM: 13%

SMILES: Cc1nn(CC(=O)Nc2ccn3ncnc3c2)c2nc(N3CCC4(CCC4)C3)cnc12 [Example 738]
activation at 3 µM: 22%

SMILES: Cc1nn(CC(=O)Nc2ccc3ncnn3c2)c2nc(N3CCC4(CCC4)C3)cnc12 [Example 739]
activation at 3 µM: 10%

SMILES: CC1CC=C(c2cnc3cnn(CC(=O)N4CCN(c5cccnc5)CC4)c3n2)CC1 (stereo not shown) [Example 740]
activation at 1 µM: 91%

SMILES: Cc1ccc(-c2cnc3cnn(CC(=O)N4CCN(c5cccnc5)CC4)c3n2)c(F)c1 [Example 742]
activation at 1 µM: 32%

SMILES: Cc1ccc(-c2cnc3cnn(CC(=O)N4CCN(c5ccncc5)CC4)c3n2)c(F)c1 [Example 743]
activation at 50 µM: 39%

SMILES: N#Cc1cnc(NC(=O)Cn2ncc3ncc(N4CCC5(CC5)C(F)(F)C4)nc32)cn1 [Example 754]
activation at 1 µM: 14%

SMILES: N#Cc1ccc(NC(=O)Cn2ncc3ncc(N4CCC5(CC5)C(F)(F)C4)nc32)nc1 [Example 757]
activation at 1 µM: 10%

SMILES: O=C(Cn1ncc2cnc(OCCC3CC3)nc21)Nc1ccn2ncnc2c1 [Example 762, 2-[6-(2-Cyclopropylethoxy)-1H-pyrazolo[3,4-d]pyrimidin-1-yl]-N-([1,2,4]triazolo[1,5-a]pyridin-7-yl)acetamide]
activation at 50 µM: 37%

SMILES: CC1CCN(c2ncc3cnn(CC(=O)Nc4ccn5ncnc5c4)c3n2)CC1 [Example 763]
Nav1.1 current amplification rate (%) [1]: 98%

SMILES: O=C(Cn1ncc2cnc(N3CCC4(CCC4)C3)nc21)Nc1ccn2ncnc2c1 [Example 765]
Nav1.1 current amplification rate (%) [1]: 25%

SMILES: O=C(Cn1ncc2cnc(N3CCC4(CCC4)CC3)nc21)Nc1ccn2ncnc2c1 [Example 766]
Nav1.1 current amplification rate (%) [1]: 41%

SMILES: O=C(Cn1ncc2cnc(N3CCOCC3)nc21)Nc1ccn2ncnc2c1 [Example 767]
Nav1.1 current amplification rate (%) [4]: 60%

SMILES: O=C(Cn1ncc2cnc(N3CCC(F)(F)CC3)nc21)Nc1ccn2ncnc2c1 [Example 768]
Nav1.1 current amplification rate (%) [1]: 18%

SMILES: Cc1ccc(-c2ncc3cnn(CC(=O)Nc4ccn5ncnc5c4)c3n2)o1 [Example 772]
Nav1.1 current amplification rate (%) [3]: 35%

SMILES: O=C(Cn1ncc2cnc(-c3ccc(Cl)s3)nc21)Nc1ccn2ncnc2c1 [Example 774]
Nav1.1 current amplification rate (%) [1]: 50%

SMILES: Cc1cccc(F)c1Nc1ncc2cnn(CC(=O)Nc3ccn4ncnc4c3)c2n1 [Example 775]
Nav1.1 current amplification rate (%) [3]: 12%

SMILES: Cc1ccc(F)c(Nc2ncc3cnn(CC(=O)Nc4ccn5ncnc5c4)c3n2)c1 [Example 776]
Nav1.1 current amplification rate (%) [3]: 17%

SMILES: N#Cc1ccc(-c2ncc3cnn(CC(=O)Nc4ccn5ncnc5c4)c3n2)s1 [Example 778]
Nav1.1 current amplification rate (%) [3]: 13%

SMILES: O=C(Cn1ncc2cnc(-c3ccc(C(F)(F)F)s3)nc21)Nc1ccn2ncnc2c1 [Example 779]
Nav1.1 current amplification rate (%) [1]: 44%

SMILES: CC(C)CCOc1ncc2cnn(CC(=O)Nc3ccn4ncnc4c3)c2n1 [Example 780]
Nav1.1 current amplification rate (%) [1]: 10%

SMILES: Cc1cc(-c2ncc3cnn(CC(=O)Nc4ccn5ncnc5c4)c3n2)oc1C [Example 781]
Nav1.1 current amplification rate (%) [3]: 15%

SMILES: O=C(Cn1ncc2cnc(N3CC(C4CC4)C3)nc21)Nc1ccn2ncnc2c1 [Example 782]
Nav1.1 current amplification rate (%) [3]: 64%

SMILES: Cc1cccc(F)c1Oc1ncc2cnn(CC(=O)Nc3ccn4ncnc4c3)c2n1 [Example 783]
Nav1.1 current amplification rate (%) [2]: 11%

SMILES: CC1=CCN(c2ncc3cnn(CC(=O)Nc4ccn5ncnc5c4)c3n2)CC1 [Example 784]
Nav1.1 current amplification rate (%) [1]: 45%

SMILES: O=C(Cn1ncc2cnc(C3=CCCCC3)nc21)Nc1ccn2ncnc2c1 [Example 786]
Nav1.1 current amplification rate (%) [1]: 34%

SMILES: Cc1ccc(-c2ncc3cnn(CC(=O)Nc4ccn5ncnc5c4)c3n2)cc1 [Example 787]
Nav1.1 current amplification rate (%) [1]: 50%

SMILES: CC1CCN(c2ncc3cnn(CC(=O)Nc4ccn5ncnc5c4)c3n2)CC1(F)F (stereo not shown) [Example 788]
Nav1.1 current amplification rate (%) [1]: 174%

SMILES: CN(CCC1CC1)c1ncc2cnn(CC(=O)Nc3ccn4ncnc4c3)c2n1 [Example 790]
Nav1.1 current amplification rate (%) [1]: 31%

SMILES: COc1cccc(F)c1-c1ncc2cnn(CC(=O)Nc3ccn4ncnc4c3)c2n1 [Example 791]
Nav1.1 current amplification rate (%) [3]: 14%

Further lines, results first:

Nav1.1 current amplification rate (%) [1]: 112%
SMILES: CN(c1cnc2cnn(CC(=O)Nc3cnc4cccnc4c3)c2n1)C1CC1 [Example 713]

Nav1.1 current amplification rate (%) [1]: 13%
SMILES: CN(c1cnc2cnn(CC(=O)N3CCc4c(C#N)cccc43)c2n1)C1CC1 [Example 715]

Nav1.1 current amplification rate (%) [2]: 23%
SMILES: CN(c1cnc2cnn(CC(=O)Nc3ccc4ccccc4n3)c2n1)C1CC1 [Example 717]

Nav1.1 current amplification rate (%) [3]: 34%
SMILES: CN(c1cnc2cnn(CC(=O)Nc3cc4ccccc4cn3)c2n1)C1CC1 [Example 718]

Nav1.1 current amplification rate (%) [1]: 78%
SMILES: CN(c1cnc2cnn(CC(=O)Nc3cnc4ccccc4c3)c2n1)C1CC1 [Example 719]

Nav1.1 current amplification rate (%) [1]: 17%
SMILES: CN(c1cnc2cnn(CC(=O)Nc3ccc4cnccc4n3)c2n1)C1CC1 [Example 721]

Nav1.1 current amplification rate (%) [1]: 35%
SMILES: CN(c1cnc2cnn(CC(=O)Nc3ccc(Cl)nc3)c2n1)C1CC1 [Example 722]

Nav1.1 current amplification rate (%) [1]: 95%
SMILES: CN(c1cnc2cnn(CC(=O)Nc3cnc4ncccc4c3)c2n1)C1CC1 [Example 723]

Nav1.1 current amplification rate (%) [1]: 28%
SMILES: CN(c1cnc2cnn(CC(=O)Nc3ccc4ccncc4n3)c2n1)C1CC1 [Example 724]

Nav1.1 current amplification rate (%) [4]: 51%
SMILES: CN(c1cnc2cnn(CC(=O)Nc3ccc4ncccc4n3)c2n1)C1CC1 [Example 725]

Nav1.1 current amplification rate (%) [4]: 31%
SMILES: CN(c1cnc2cnn(CC(=O)Nc3cccnc3)c2n1)C1CC1 [Example 726]

Nav1.1 current amplification rate (%) [4]: 71%
SMILES: CN(c1cnc2cnn(CC(=O)Nc3cc4ccccc4nn3)c2n1)C1CC1 [Example 727]

Nav1.1 current amplification rate (%) [1]: 71%
SMILES: CN(c1cnc2cnn(CC(=O)Nc3ccc4ncncc4c3)c2n1)C1CC1 [Example 728]

Nav1.1 current amplification rate (%) [4]: 55%
SMILES: CN(c1cnc2cnn(CC(=O)Nc3cc4cccnc4cn3)c2n1)C1CC1 [Example 729]

Nav1.1 current amplification rate (%) [1]: 133%
SMILES: CN(c1cnc2cnn(CC(=O)N3CCc4c(C5CC5)cccc43)c2n1)C1CC1 [Example 730]

Nav1.1 current amplification rate (%) [1]: 152%
SMILES: CN(c1cnc2cnn(CC(=O)Nc3ccc4ccncc4c3)c2n1)C1CC1 [Example 732]

Nav1.1 current amplification rate (%) [1]: 76%
SMILES: CN(c1cnc2cnn(CC(=O)Nc3ccc4cnncc4c3)c2n1)C1CC1 [Example 733]

activation at 1 µM: 321%
SMILES: CC1CC=C(c2cnc3cnn(CC(=O)Nc4ccc5ocnc5c4)c3n2)CC1 (stereo not shown) [Example 735]

activation at 1 µM: 249%
SMILES: CC1(C)CC=C(c2cnc3cnn(CC(=O)Nc4ccn5ccnc5c4)c3n2)CC1 [Example 737]

activation at 1 µM: 61%
SMILES: Cc1cc(NC(=O)Cn2ncc3ncc(N4CCC5(CC5)C(F)(F)C4)nc32)cc2ncnn12 [Example 741]

activation at 1 µM: 147%
SMILES: O=C(Cn1ncc2ncc(N3CCC4(CC4)C(F)(F)C3)nc21)Nc1ccn2ccnc2c1 [Example 744]

activation at 1 µM: 43%
SMILES: Cc1cc(NC(=O)Cn2ncc3ncc(N(C)CC4CC4)nc32)cc2ncnn12 [Example 745]

activation at 1 µM: 73%
SMILES: O=C(Cn1ncc2ncc(N3CCC4(CC4)C(F)(F)C3)nc21)Nc1ccc(-n2ccnc2)nc1 [Example 747]

activation at 1 µM: 17%
SMILES: CN(CC1CC1)c1cnc2cnn(CC(=O)Nc3ccc(C#N)nc3)c2n1 [Example 748]

activation at 10 µM: 63%
SMILES: CC1CC2(C1)CN(c1cnc3cnn(CC(=O)Nc4ccc(C#N)nc4)c3n1)C2 [Example 749]

activation at 10 µM: 27%
SMILES: CN(c1cnc2cnn(CC(=O)NCCc3ccccc3F)c2n1)C1CC2(CC2)C1 [Example 750]

activation at 10 µM: 121%
SMILES: CN(c1cnc2cnn(CC(=O)N3Cc4ccc(Br)cc4C3)c2n1)C1CC2(CC2)C1 [Example 751]

activation at 1 µM: 135%
SMILES: CN(c1cnc2cnn(CC(=O)Nc3cnc4cccnc4c3)c2n1)C1CC2(CC2)C1 [Example 752]

activation at 1 µM: 245%
SMILES: CN(c1cnc2cnn(CC(=O)Nc3cnc4cccnc4c3)c2n1)C1CC(C)(C)C1 [Example 755]

activation at 1 µM: 104%
SMILES: CN(c1cnc2cnn(CC(=O)Nc3ccc(C#N)nc3)c2n1)C1CC(C)(C)C1 [Example 756]

activation at 1 µM: 61%
SMILES: CN(c1cnc2cnn(CC(=O)Nc3ccc4ncncc4c3)c2n1)C1CC(C)(C)C1 [Example 758]

activation at 1 µM: 57%
SMILES: CN(c1cnc2cnn(CC(=O)Nc3ccc4ncncc4c3)c2n1)C1CC2(CC2)C1 [Example 759]

activation at 1 µM: 104%
SMILES: CN(CC1(C)CC1)c1cnc2cnn(CC(=O)Nc3cnc4cccnc4c3)c2n1 [Example 760]

activation at 1 µM: 43%
SMILES: CN(c1cnc2cnn(CC(=O)Nc3ccc(C#N)nn3)c2n1)C1CC(C)(C)C1 [Example 761]

Nav1.1 current amplification rate (%) [1]: 36%
SMILES: CCC1(C)CCN(c2ncc3cnn(CC(=O)Nc4ccn5ncnc5c4)c3n2)CC1 [Example 789]
